Reference: US9758538B2, “Pyrimidine derivatives” (PFIZER INC., priority 2015, dated 2017)

target: truncated PI3Kα (p110α/iSH2 p85α), PI3KA_Act (Homo sapiens (Human), UniProt P42336); experiment: PI3Kα biochemical kinase assay, fluorescence polarization format (PI3KA_Act); details: 0.5 nM p110α/iSH2 p85, 1 mM ATP, 30 μM PIP2, 15-min preincubation; Morrison equation fit; read-out: PI3KA_Act Ki
Summary of the method: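 Enzyme: His-tagged p110α/p85α niSH2 complex from Sf21 baculovirus expression, IMAC-purified, tag cleaved, then SEC. Reactions ran 30 min at room temperature, stopped with 10 mM EDTA pH 8 (final), and were read by fluorescence polarization.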

truncated PI3Kα (p110α/iSH2 p85α), PI3KA_Act, sequence (P42336 whole entry, the tested form may be a part): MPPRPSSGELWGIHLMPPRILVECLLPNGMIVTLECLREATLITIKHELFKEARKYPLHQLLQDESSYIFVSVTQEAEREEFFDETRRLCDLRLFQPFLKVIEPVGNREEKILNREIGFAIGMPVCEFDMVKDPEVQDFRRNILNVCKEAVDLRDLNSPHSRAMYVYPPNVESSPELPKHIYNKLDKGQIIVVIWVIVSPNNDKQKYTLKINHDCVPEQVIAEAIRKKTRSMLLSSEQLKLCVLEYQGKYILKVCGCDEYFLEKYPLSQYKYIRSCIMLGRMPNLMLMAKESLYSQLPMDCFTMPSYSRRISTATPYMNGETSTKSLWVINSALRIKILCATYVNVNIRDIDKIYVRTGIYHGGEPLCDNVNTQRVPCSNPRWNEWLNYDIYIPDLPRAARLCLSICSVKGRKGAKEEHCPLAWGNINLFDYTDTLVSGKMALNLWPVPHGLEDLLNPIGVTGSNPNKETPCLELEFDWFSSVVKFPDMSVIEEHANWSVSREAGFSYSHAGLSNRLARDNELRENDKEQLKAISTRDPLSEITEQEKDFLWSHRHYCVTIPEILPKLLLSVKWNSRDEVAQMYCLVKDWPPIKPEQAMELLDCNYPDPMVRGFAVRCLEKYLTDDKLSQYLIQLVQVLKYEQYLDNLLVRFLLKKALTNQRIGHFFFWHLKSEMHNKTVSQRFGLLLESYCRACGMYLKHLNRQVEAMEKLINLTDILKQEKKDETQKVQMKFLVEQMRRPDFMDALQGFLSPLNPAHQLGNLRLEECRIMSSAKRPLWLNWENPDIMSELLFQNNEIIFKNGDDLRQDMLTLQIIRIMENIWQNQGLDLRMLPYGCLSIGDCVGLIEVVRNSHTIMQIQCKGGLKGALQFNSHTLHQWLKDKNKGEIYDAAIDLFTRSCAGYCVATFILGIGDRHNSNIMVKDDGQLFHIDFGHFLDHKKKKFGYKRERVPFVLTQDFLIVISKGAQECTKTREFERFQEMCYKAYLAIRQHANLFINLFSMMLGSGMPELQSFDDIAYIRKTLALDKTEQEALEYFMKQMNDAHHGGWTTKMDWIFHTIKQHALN

Question: Which Ki does the source give for CN(C)C(=O)CN1CC[C@](CO)(Nc2cc(-c3cnc(N)nc3)nc(N3CCOCC3)n2)C1 [Example 100, 2-[(3S)-3-{[2′-amino-2-(morpholin-4-yl)-4,5′-bipyrimidin-6-yl]amino}-3-(hydroxymethyl)pyrrolidin-1-yl]-N,N-dimethylacetamide] here?
Answer: 1.48 nM

Question: For Nc1ncc(-c2nc(N3CCOCC3)nc(N[C@@]3(CO)CCN(C(=O)OC4CC4)C3)c2F)cn1 [Example 101, cyclopropyl (3S)-3-{[2′-amino-5-fluoro-2-(morpholin-4-yl)-4,5′-bipyrimidin-6-yl]amino}-3-(hydroxymethyl)pyrrolidine-1-carboxylate], which Ki is on record?
Answer: 0.068 nM

Question: With C[C@H]1COCCN1c1nc(N[C@@]2(CO)CCN(C(=O)OC3CC3)C2)cc(-c2cnc(N)nc2)n1 [Example 102, cyclopropyl (3S)-3-({2′-amino-2-[(3S)-3-methylmorpholin-4-yl]-4,5′-bipyrimidin-6-yl}amino)-3-(hydroxymethyl)pyrrolidine-1-carboxylate] as the molecule, how does the Ki read?
Answer: < 0.018 nM

Question: With Nc1ncc(-c2nc(N[C@@]3(CO)CCN(C(=O)OC4CC4)C3)nc(N3CCOCC3)n2)cn1 [Example 103, cyclopropyl (3S)-3-{[4-(2-aminopyrimidin-5-yl)-6-(morpholin-4-yl)-1,3,5-triazin-2-yl]amino}-3-(hydroxymethyl)pyrrolidine-1-carboxylate] as the molecule, how does the Ki read?
Answer: 0.107 nM

Question: C[C@H]1COCCN1c1nc(N[C@@]2(CO)CCN(C(=O)C3COC3)C2)cc(-c2cnc(N)nc2)n1 [Example 104, [(3S)-3-({2′-amino-2-[(3S)-3-methylmorpholin-4-yl]-4,5′-bipyrimidin-6-yl}amino)-3-(hydroxymethyl)pyrrolidin-1-yl](oxetan-3-yl)methanone] was tested. Which Ki did it give?
Answer: 0.674 nM

Question: Which Ki does the source give for Nc1ncc(-c2cc(NC3(CF)CCN(C(=O)OCc4ccccc4)C3)nc(N3CCOCC3)n2)cn1 (centres unmarked) [Example 105, benzyl 3-{[2′-amino-2-(morpholin-4-yl)-4,5′-bipyrimidin-6-yl]amino}-3-(fluoromethyl)pyrrolidine-1-carboxylate] here?
Answer: 0.489 nM

Question: Which Ki does the source give for CC(=O)N1CC[C@](C)(Nc2nc(N3CCOCC3)nc(-c3cnc(N)nc3)c2F)C1 [Example 106, 1-[(3S)-3-{[2′-amino-5-fluoro-2-(morpholin-4-yl)-4,5′-bipyrimidin-6-yl]amino}-3-methylpyrrolidin-1-yl]ethanone] here?
Answer: 0.12 nM

Question: How did the Ki turn out when CC(C)C(=O)N1CC[C@](C)(Nc2nc(N3CCOCC3)nc(-c3cnc(N)nc3)c2F)C1 [Example 107, 1-[(3S)-3-{[2′-amino-5-fluoro-2-(morpholin-4-yl)-4,5′-bipyrimidin-6-yl]amino}-3-methylpyrrolidin-1-yl]-2-methylpropan-1-one] was run?
Answer: 0.23 nM

Question: CC(C)(C)OC(=O)N1CC[C@](C)(Nc2nc(N3CCOCC3)nc(-c3cnc(N)nc3)c2F)C1 [Example 108, tert-butyl (3S)-3-{[2′-amino-5-fluoro-2-(morpholin-4-yl)-4,5′-bipyrimidin-6-yl]amino}-3-methylpyrrolidine-1-carboxylate] was tested. Which Ki did it give?
Answer: 0.036 nM

Question: For CC(C)(C)OC(=O)N1CCC(CF)(Nc2cc(-c3cnc(N)nc3)nc(N3CCOCC3)n2)C1 (centres unmarked) [Example 110, tert-butyl 3-{[2′-amino-2-(morpholin-4-yl)-4,5′-bipyrimidin-6-yl]amino}-3-(fluoromethyl)pyrrolidine-1-carboxylate], which Ki is on record?
Answer: 0.072 nM

Question: C[C@H]1COCCN1c1nc(N[C@@]2(CO)CCN(C(=O)OC(C)(C)C)C2)c(F)c(-c2cnc(N)nc2)n1 [Example 111, tert-butyl (3S)-3-({2′-amino-5-fluoro-2-[(3S)-3-methylmorpholin-4-yl]-4,5′-bipyrimidin-6-yl}amino)-3-(hydroxymethyl)pyrrolidine-1-carboxylate] was tested. Which Ki did it give?
Answer: < 0.018 nM

Question: With C[C@H]1COCCN1c1nc(N[C@@]2(CO)CCNC2)c(F)c(-c2cnc(N)nc2)n1 [Example 112, [(3S)-3-({2′-amino-5-fluoro-2-[(3S)-3-methylmorpholin-4-yl]-4,5′-bipyrimidin-6-yl}amino)pyrrolidin-3-yl]methanol] as the molecule, how does the Ki read?
Answer: 1.01 nM

Question: How did the Ki turn out when CCOC(=O)N1CC[C@](COC(C)=O)(Nc2cc(-c3cnc(N)nc3)nc(N3CCOCC3)n2)C1 [Example 113, ethyl (3S)-3-[(acetyloxy)methyl]-3-{[2′-amino-2-(morpholin-4-yl)-4,5′-bipyrimidin-6-yl]amino}pyrrolidine-1-carboxylate] was run?
Answer: 3.23 nM

Question: How did the Ki turn out when COC(=O)N1CC[C@](CO)(Nc2nc(N3CCOC[C@@H]3C)nc(-c3cnc(N)nc3)c2F)C1 [Example 114, methyl (3S)-3-({2′-amino-5-fluoro-2-[(3S)-3-methylmorpholin-4-yl]-4,5′-bipyrimidin-6-yl}amino)-3-(hydroxymethyl)pyrrolidine-1-carboxylate] was run?
Answer: < 0.018 nM

Question: With Nc1ncc(-c2nc(N3CCOCC3)nc(N[C@@]3(CO)CCN(C(=O)C4(F)CCC4)C3)c2F)cn1 [Example 115, [(3S)-3-{[2′-amino-5-fluoro-2-(morpholin-4-yl)-4,5′-bipyrimidin-6-yl]amino}-3-(hydroxymethyl)pyrrolidin-1-yl](1-fluorocyclobutyl)methanone] as the molecule, how does the Ki read?
Answer: 0.036 nM

Question: C[C@H]1COCCN1c1nc(N[C@@]2(CO)CCN(C(=O)OC3CC3)C2)c(F)c(-c2cnc(N)nc2)n1 [Example 117, cyclopropyl (3S)-3-({2′-amino-5-fluoro-2-[(3S)-3-methylmorpholin-4-yl]-4,5′-bipyrimidin-6-yl}amino)-3-(hydroxymethyl)pyrrolidine-1-carboxylate] was tested. Which Ki did it give?
Answer: < 0.018 nM

Question: For CCOC(=O)N1CC[C@](CO)(Nc2nc(-c3cnc(N)nc3)nc(N3CCOC[C@@H]3C)n2)C1 [Example 118, ethyl (3S)-3-({4-(2-aminopyrimidin-5-yl)-6-[(3S)-3-methylmorpholin-4-yl]-1,3,5-triazin-2-yl}amino)-3-(hydroxymethyl)pyrrolidine-1-carboxylate], which Ki is on record?
Answer: < 0.018 nM

Question: C[C@H]1COCCN1c1nc(N[C@@]2(CO)CCN(C(=O)C3CC3)C2)c(F)c(-c2cnc(N)nc2)n1 [Example 120, [(3S)-3-({2′-amino-5-fluoro-2-[(3S)-3-methylmorpholin-4-yl]-4,5′-bipyrimidin-6-yl}amino)-3-(hydroxymethyl)pyrrolidin-1-yl](cyclopropyl)methanone] was tested. Which Ki did it give?
Answer: < 0.018 nM

Question: Which Ki does the source give for CCOC(=O)N1CC[C@](COC)(Nc2cc(-c3cnc(N)nc3)nc(N3CCOCC3)n2)C1 [Example 121, ethyl (3S)-3-{[2′-amino-2-(morpholin-4-yl)-4,5′-bipyrimidin-6-yl]amino}-3-(methoxymethyl)pyrrolidine-1-carboxylate] here?
Answer: 0.15 nM

Question: For COC[C@]1(Nc2cc(-c3cnc(N)nc3)nc(N3CCOCC3)n2)CCNC1 [Example 122, N˜6˜-[(3S)-3-(methoxymethyl)pyrrolidin-3-yl]-2-(morpholin-4-yl)-4,5′-bipyrimidine-2′,6-diamine], which Ki is on record?
Answer: 21.5 nM

Question: For CC(C)(C)OC(=O)N1CCCC(CO)(Nc2cc(-c3cnc(N)nc3)nc(N3CCOCC3)n2)C1 (centres unmarked) [Example 123, tert-butyl 3-{[2′-amino-2-(morpholin-4-yl)-4,5′-bipyrimidin-6-yl]amino}-3-(hydroxymethyl)piperidine-1-carboxylate], which Ki is on record?
Answer: 1.7 nM

Question: Which Ki does the source give for C[C@H]1COCCN1c1nc(N[C@@]2(CF)CCN(C(=O)OC(C)(C)C)C2)cc(-c2cnc(N)nc2)n1 [Example 124, tert-butyl (3S)-3-({2′-amino-2-[(3S)-3-methylmorpholin-4-yl]-4,5′-bipyrimidin-6-yl}amino)-3-(fluoromethyl)pyrrolidine-1-carboxylate] here?
Answer: 0.046 nM

Question: Which Ki does the source give for Cc1ncc(-c2cc(N[C@@]3(CO)CCN(C(=O)OC(C)(C)C)C3)nc(N3CCOCC3)n2)cc1C#N [Example 125, tert-butyl (3S)-3-{[6-(5-cyano-6-methylpyridin-3-yl)-2-(morpholin-4-yl)pyrimidin-4-yl]amino}-3-(hydroxymethyl)pyrrolidine-1-carboxylate] here?
Answer: 118 nM

Question: How did the Ki turn out when Cc1ncc(-c2cc(N[C@@]3(CO)CCN(C(=O)OC(C)(C)C)C3)nc(N3CCOCC3)n2)cn1 [Example 126, tert-butyl (3S)-3-(hydroxymethyl)-3-{[2′-methyl-2-(morpholin-4-yl)-4,5′-bipyrimidin-6-yl]amino}pyrrolidine-1-carboxylate] was run?
Answer: 1.92 nM

Question: How did the Ki turn out when Cc1ncc(-c2cc(N[C@@]3(CO)CCN(C(=O)OC(C)(C)C)C3)nc(N3CCOCC3)n2)cc1F [Example 127, tert-butyl (3S)-3-{[6-(5-fluoro-6-methylpyridin-3-yl)-2-(morpholin-4-yl)pyrimidin-4-yl]amino}-3-(hydroxymethyl)pyrrolidine-1-carboxylate] was run?
Answer: 19 nM

Question: With CCOC(=O)N1CC[C@](CO)(Nc2cc(-c3cnc(C)c(C#N)c3)nc(N3CCOCC3)n2)C1 [Example 128, ethyl (3S)-3-{[6-(5-cyano-6-methylpyridin-3-yl)-2-(morpholin-4-yl)pyrimidin-4-yl]amino}-3-(hydroxymethyl)pyrrolidine-1-carboxylate] as the molecule, how does the Ki read?
Answer: 110 nM

Question: For CCOC(=O)N1CC[C@](CO)(Nc2cc(-c3cnc(C)c(F)c3)nc(N3CCOCC3)n2)C1 [Example 129, ethyl (3S)-3-{[6-(5-fluoro-6-methylpyridin-3-yl)-2-(morpholin-4-yl)pyrimidin-4-yl]amino}-3-(hydroxymethyl)pyrrolidine-1-carboxylate], which Ki is on record?
Answer: 8.29 nM

Question: How did the Ki turn out when CCOC(=O)N1CC[C@](CO)(Nc2cc(-c3cnc(C)nc3)nc(N3CCOCC3)n2)C1 [Example 130, ethyl (3S)-3-(hydroxymethyl)-3-{[2′-methyl-2-(morpholin-4-yl)-4,5′-bipyrimidin-6-yl]amino}pyrrolidine-1-carboxylate] was run?
Answer: 0.83 nM

same assay, conditions: PI3KA_Act Ki (nM), 0.5 nM p110α/iSH2 p85, 1 mM ATP, 30 μM PIP2, 15-min preincubation; Morrison equation fit

Question: How did the Ki turn out when C[C@H]1COCCN1c1nc(N[C@@]2(CO)CCN(C(=O)OCC(F)F)C2)c(F)c(-c2cnc(N)nc2)n1 [Example 119, 2,2-difluoroethyl (3S)-3-({2′-amino-5-fluoro-2-[(3S)-3-methylmorpholin-4-yl]-4,5′-bipyrimidin-6-yl}amino)-3-(hydroxymethyl)pyrrolidine-1-carboxylate] was run?
Answer: < 0.018 nM
